Experimental data: BindingDB's records for doi:10.1021/jf901979k (University of Lleida, 2009)

Assay: Inhibition of esterase in male Ostrinia nubilalis (European corn borer) antenna

SMILES | IC50 [µM]
CC/C=C\CCCCCCCCCC(=O)C(F)(F)F [(Z)-10-tridecenyl trifluoromethyl ketone] | 7.5
CC/C=C\CCCCCCCCCCC(=O)C(F)(F)F [(Z)-11-tetradecenyl trifluoromethyl ketone] | 0.28
